Reference: ChEMBL document CHEMBL3885861, “Open TG-GATES”

Species: Rattus norvegicus
Assay: Open TG-GATES - Regimen: Daily Repeat
Assay type: toxicity, organism-based, Sprague-Dawley
Design: regimen Daily Repeat, gender Male, age 6 weeks
Conditions: in vivo, po, 0 mg/kg, […], route gavage, dose level Control; for KIDNEY_L / KIDNEY_R / KIDNEY_TOTAL: tissue Kidney; for LIVER: tissue Liver; for A/G / ALP / ALT / AST / BUN / CRE / Ca / Cl / DBIL / GLC / IP / K / LDH / Na / PL / RALB / TBIL / TC / TG / TP / gamma-GTP: tissue Plasma

`C[C@H]1O[C@H](O[C@H]2[C@H](O)[C@@H](O)[C@@H](O[C@H]3[C@H](O)[C@@H](O)C(O)O[C@@H]3CO)O[C@@H]2CO)[C@H](O)[C@@H](O)[C@@H]1N[C@H]1C=C(CO)[C@@H](O)[C@H](O)[C@H]1O` (stereo partly specified) [ACARBOSE] was tested, and the Lym (tissue Blood, time 28 day) was 79.6%, the MCH (tissue Blood, time 28 day) was 19.9 pg and the MCHC (tissue Blood, time 28 day) was 34.8%. It also gave an MCV (tissue Blood, time 28 day) of 57.2 fL, a Mono (tissue Blood, time 28 day) of 2% and a Neu (tissue Blood, time 28 day) of 16.2%. The PT (tissue Blood, time 28 day) was 13.3 s, the Plat (tissue Blood, time 28 day) was 103.4 x10_4/uL and the RBC (tissue Blood, time 28 day) was 799.4 x10_4/ul. For the same compound, the Ret (tissue Blood, time 28 day) was 2.2%, the WBC (tissue Blood, time 28 day) was 93.1 x10_2/uL and the KIDNEY_L (time 7 day) was 1.1 g. The KIDNEY_R (time 7 day) was 1.1 g, the KIDNEY_TOTAL (time 7 day) was 2.3 g and the KIDNEY_L (time 14 day) was 1.1 g. For the same compound, the KIDNEY_R (time 14 day) was 1.2 g, the KIDNEY_TOTAL (time 14 day) was 2.3 g and the KIDNEY_L (time 28 day) was 1.4 g. For the same compound, the KIDNEY_R (time 28 day) was 1.3 g, the KIDNEY_TOTAL (time 28 day) was 2.7 g and the LIVER (time 7 day) was 13.2 g. The LIVER (time 14 day) was 13.2 g, the LIVER (time 28 day) was 15 g and the A/G (time 7 day) was 0.8. For the same compound, the ALP (time 7 day) was 1472.4 IU/L, the ALT (time 7 day) was 38.4 IU/L and the AST (time 7 day) was 66.6 IU/L. It also gave a BUN (time 7 day) of 16.4 mg/dL, a CRE (time 7 day) of 0.2 mg/dL and a Ca (time 7 day) of 11 mg/dL. For the same compound, the Cl (time 7 day) was 103.6 meq/L, the DBIL (time 7 day) was 0.004 mg/dL and the GLC (time 7 day) was 173.8 mg/dL. The IP (time 7 day) was 8.1 mg/dL, the K (time 7 day) was 3.8 meq/L and the LDH (time 7 day) was 83.8 IU/L. It also gave a Na (time 7 day) of 142.4 meq/L, a PL (time 7 day) of 160.4 mg/dL and an RALB (time 7 day) of 2.7 g/dL. It also gave a TBIL (time 7 day) of 0.052 mg/dL, a TC (time 7 day) of 83.2 mg/dL and a TG (time 7 day) of 115.6 mg/dL. The TP (time 7 day) was 5.8 g/dL, the gamma-GTP (time 7 day) was 1 IU/L and the A/G (time 14 day) was 0.8. It also gave an ALP (time 14 day) of 1741.6 IU/L, an ALT (time 14 day) of 42.6 IU/L and an AST (time 14 day) of 72.2 IU/L. The BUN (time 14 day) was 16 mg/dL, the CRE (time 14 day) was 0.2 mg/dL and the Ca (time 14 day) was 10.6 mg/dL. The Cl (time 14 day) was 105.8 meq/L, the DBIL (time 14 day) was 0.014 mg/dL and the GLC (time 14 day) was 188 mg/dL. The IP (time 14 day) was 6.4 mg/dL, the K (time 14 day) was 4.1 meq/L and the LDH (time 14 day) was 74.6 IU/L. For the same compound, the Na (time 14 day) was 142 meq/L, the PL (time 14 day) was 161.4 mg/dL and the RALB (time 14 day) was 2.7 g/dL. It also gave a TBIL (time 14 day) of 0.048 mg/dL, a TC (time 14 day) of 74.4 mg/dL and a TG (time 14 day) of 182.4 mg/dL. It also gave a TP (time 14 day) of 6 g/dL, a gamma-GTP (time 14 day) of 1 IU/L and an A/G (time 28 day) of 0.8. The ALP (time 28 day) was 1131.6 IU/L, the ALT (time 28 day) was 43.4 IU/L and the AST (time 28 day) was 69.6 IU/L. The BUN (time 28 day) was 17.2 mg/dL, the CRE (time 28 day) was 0.2 mg/dL and the Ca (time 28 day) was 10.8 mg/dL. For the same compound, the Cl (time 28 day) was 104.4 meq/L, the DBIL (time 28 day) was 0.014 mg/dL and the GLC (time 28 day) was 184.8 mg/dL. It also gave an IP (time 28 day) of 6.4 mg/dL, a K (time 28 day) of 4.2 meq/L and an LDH (time 28 day) of 121 IU/L. The Na (time 28 day) was 141.6 meq/L, the PL (time 28 day) was 146.6 mg/dL and the RALB (time 28 day) was 2.8 g/dL. The TBIL (time 28 day) was 0.056 mg/dL, the TC (time 28 day) was 66.8 mg/dL and the TG (time 28 day) was 158.2 mg/dL. It also gave a TP (time 28 day) of 6.2 g/dL and a gamma-GTP (time 28 day) of 1 IU/L.
